Assay results taken from article PMC4934371 (Biochemistry, 2016).

Legend:
[1] = molecular target: T1, triosephosphate isomerase (TbbTIM) (Trypanosoma brucei, UniProt P04789, I172A/L232A); assay: activation of [[…]-13C]-glycolaldehyde turnover followed by 1H NMR, fit to give Kd; assay type: biochemical
[2] = molecular target: T1, triosephosphate isomerase (TbbTIM); assay: X-ray crystal structure; assay type: biochemical
[3] = tested on: O=C[C@H](O)COP(=O)(O)O; assay: steady-state kinetics of isomerization; assay type: biochemical, Trypanosoma brucei; conditions: active site; pH 7.5; 25.0 °C

For `O=[PH](O)O` [HPi, phosphite dianion], which Kd [1] is on record?
Its Kd is 5.9 ± 0.5 mM.

With `O=C(O)COP(=O)(O)O` [PGA, 2-phosphoglycolate] as the molecule, how does the Ki [2] read?
Its Ki is 0.12 mM.

“triosephosphate isomerase (TbbTIM) (Trypanosoma brucei brucei; I172A/L232A)” was tested. Which kcat/Km [3] did it give?
The kcat/Km was 350000 M⁻¹ s⁻¹.
